Experimental data: paper PMC11589570, “Critical assessment of LC3/GABARAP ligands used for degrader development and ligandability of LC3/GABARAP binding pockets” (Nature Communications, 2024)
“And” between values parts separate entries of the source, which are not always exact repeats. Equal entries are not always repeated.

What was measured:
LC3A [1] = target: T1, LC3A (Homo sapiens, UniProt Q9H492); experiment: FP assay with Cy5-labelled p62 LIR tracer (protein titration and tracer displacement); type: binding; settings: for normalized FP signal, p62 LIR tracer displacement: LC3A
LC3B = LC3B (Homo sapiens, UniProt Q9GZQ8); experiment: as above; type: binding; settings: for normalized FP signal, p62 LIR tracer displacement: LC3B; for compound titration LC3B (displacement curve, FP signal): two replicate columns per compound
LC3A [2] = target: T1, LC3A; experiment: Isothermal titration calorimetry (ITC); type: binding; settings: LC3A
[3] = tested on: RPE-1 GFP-LC3B-RPF-LC3∆G reporter cell line; experiment: Autophagy flux assay; type: cell-based; settings: rebuttal letter
From the text: LC3/GABARAP in vitro, but no attempts are made to replicate the previously reported cellular activity of these compounds. It would be beneficial to know whether these compounds have any effect on autophagy in the authors’ hands, and therefore could act by alternative mechanisms, or whether they […]
Response: We were very concerned that the ligands used for ATTEC development might induce general toxicity in cell lines, as they are based on drugs used in oncology (such as the kinesin inhibitor 10O5) and the isoxazole scaffold often used in the development of multi-targeted kinase inhibitors. However, we have now investigated compounds 1-4 in autophagy flux assays using the RPE-1 GFP-LC3B-RPF-LC3∆G reporter cell line (single clone) as […]
reported in [PMID:37558952].
(RR_Figure 6). The authors of the first manuscript reporting these ligands [PMID: 31666698]
However, due to the potent activity of 8F20 on KIF11, which will have profound effects on cell trafficking and growth, and DCAF11 (AN1, [PMID: 38036533]), we find it unlikely that the effects on autophagy are due to LC3/GABARAP modulation. Due to the lack of target (LC3/GABARAP) binding in vitro and the […]
of this review but have excluded the data in the manuscript.
RR_figure 5: Autophagy flux measurement for 10O5 and AN2. No induction of autophagy or effects (right panels, assessed by Incucyte (Sartorius) life cell imaging) on cell growth was […]
RR_figure 6: Autophagy flux measurement for 8F20 and AN1 show changes in autophagy flux […]
It is not clear how many biological replicates have been performed. For example, the figure legends […]

[4] = log10 concentration [M] -3.82391
[5] = log10 concentration [M] -4.60206
[6] = log10 concentration [M] -5.30103
[7] = log10 concentration [M] -6.22185
[8] = log10 concentration [M] -4.1549
[9] = log10 concentration [M] -5.69897
[10] = log10 concentration [M] -6.69897
[11] = log10 concentration [M] -7.30103
[12] = log10 concentration [M] -7.79588
[13] = log10 concentration [M] -8.08092

`O=C1Nc2ccc(I)cc2C1=Cc1cc(Br)c(O)c(Br)c1` [compound 4] was tested, and the “normalized FP signal, p62 LIR tracer displacement” value (“normalized FP signal” for short) (LC3A [1]; [4]) was 89.4737, the “normalized FP signal” value (LC3A [1]; log10 concentration [M] -3.82391, listed as 10O5) was 75.5263 and the “normalized FP signal” value (LC3A [1]; log10 concentration [M] -4.1549, listed as 10O5) was 82.8947 and 95. For the same compound, the “normalized FP signal” value (LC3A [1]; [5]) was 100.526, the “normalized FP signal” value (LC3A [1]; log10 concentration [M] -4.60206, listed as 10O5) was 87.3684 and the “normalized FP signal” value (LC3A [1]; log10 concentration [M] -5) was 94.4737. The “normalized FP signal” value (LC3A [1]; log10 concentration [M] -5, listed as 10O5) was 88.6842, the “normalized FP signal” value (LC3A [1]; [6]) was 95.7895 and the “normalized FP signal” value (LC3A [1]; log10 concentration [M] -5.69897, listed as 10O5) was 88.1579 and 98.6842. The “normalized FP signal” value (LC3A [1]; [7]) was 93.1579, the “normalized FP signal” value (LC3A [1]; log10 concentration [M] -6.22185, listed as 10O5) was 102.368 and the “normalized FP signal” value (LC3A [1]; log10 concentration [M] -6.69897, listed as 10O5) was 99.4737 and 97.6316. The “normalized FP signal” value (LC3A [1]; log10 concentration [M] -7.30103, listed as 10O5) was 97.6316 and 100, the “normalized FP signal” value (LC3A [1]; log10 concentration [M] -7.79588, listed as 10O5) was 98.6842 and 98.1579 and the “normalized FP signal” value (LC3A [1]; log10 concentration [M] -8.08092, listed as 10O5) was 98.9474 and 105.263. For the same compound, the “compound titration LC3A (displacement curve, FP signal)” value (LC3A [1]; log10 concentration [M] -5.30103, two replicate columns per compound) was 95.7895, the “normalized FP signal” value (LC3B; [4]) was 84.7368 and the “normalized FP signal” value (LC3B; [8]) was 89.2105. For the same compound, the “normalized FP signal” value (LC3B; [5]) was 90.7895, the “normalized FP signal” value (LC3B; log10 concentration [M] -5) was 95 and the “normalized FP signal” value (LC3B; [6]) was 93.9474 and 101.579. The “normalized FP signal” value (LC3B; [9]) was 91.0526, the “normalized FP signal” value (LC3B; [7]) was 96.5789 and the “normalized FP signal” value (LC3B; [10]) was 94.2105 and 95.5263. The “normalized FP signal” value (LC3B; [11]) was 96.3158 and 90.2632, the “normalized FP signal” value (LC3B; [12]) was 96.5789 and the “normalized FP signal” value (LC3B; [13]) was 96.0526 and 95.2632. For the same compound, the “compound titration LC3B (displacement curve, FP signal)” value (“compound titration LC3B” for short) (LC3B; [4]) was 84.7368 and 89.4737, the “compound titration LC3B” value (LC3B; [8]) was 89.4737 and 89.2105 and the “compound titration LC3B” value (LC3B; [5]) was 90.7895 and 93.1579. The “compound titration LC3B” value (LC3B; log10 concentration [M] -5) was 95 and 100.526, the “compound titration LC3B” value (LC3B; [6]) was 93.9474 and 101.579 and the “compound titration LC3B” value (LC3B; [9]) was 91.0526. For the same compound, the “compound titration LC3B” value (LC3B; [7]) was 96.5789 and 94.4737, the “compound titration LC3B” value (LC3B; [10]) was 94.2105 and 95.5263 and the “compound titration LC3B” value (LC3B; [11]) was 96.3158 and 90.2632. The “compound titration LC3B” value (LC3B; [12]) was 93.1579 and 96.5789, the “compound titration LC3B” value (LC3B; [13]) was 96.0526 and 95.2632 and the “outcome of ITC titration” value (LC3A [2]) was “low solubility in the buffer system”. For the same compound, the “outcome of ITC titration” value (LC3A [2]; listed as 10O5) was “induced protein precipitation”, the “autophagy induction (autophagy flux)” value [3] was “did not induce autophagy” and the “effects on cell growth (Incucyte life cell imaging)” value [3] was “No induction of autophagy or effects”.
